{"source": "patent US20250281679A1", "about": "“BIOMIMETIC COATING FOR ENDOVASCULAR STENT” (INSERM (Institut National de la Santé et de la Recherche …, priority 2021, published 2025)", "key": {"endothelial cells": {"test_system": "endothelial cells", "conditions": "immobilized peptide, cited from earlier work"}, "[1]": {"conditions": "immobilized peptide, in vivo; cited from earlier work"}, "CD31": {"test_system": "CD31", "conditions": "soluble peptide; cited from earlier work"}, "[2]": {"test_system": "Human aortic endothelial cells", "assay": "Human aortic endothelial cells grown 48 h on bare or peptide-coated nitinol disks; F-actin and CD31 fluorescence image analysis", "type": "cell-based", "conditions": "for CD31/Actin score: Example 2, FIG. 25, compared to bare metal disks or disks coated with PDA alone; for CD31 expression, Integrated Density: HAEC 48 h on coated nitinol disks, anti-CD31 domain 1 antibody, compared to other modified disks and bare controls, FIGS. 2, 4, 5; for ratio between CD31 and F-actin expression: compared to bare metal and disks coated with PDA only, FIG. 6", "protocol": "Nitinol disks are left untouched (bare metal) or coated with a domain 1, domain 2 or domain 1 and 2 CD31 analog peptide. The tested peptide is grafted to the nitinol disk following a polydopamine, DBCO-PEG4-amine and azide CD31 derivative peptide using a sequential dip-coating layering procedure. After this step, all the disks are incubated with Human aortic endothelial cells for 48h. Disks are then rinsed and the cells are fixed in a formalin solution before staining. The staining is fulfilled using phalloidin coupled to AlexaFluor®488 dye (green fluorescence for Actin), DAPI is used for DNA staining and a domain 1 CD31 antibody coupled to APC is used for external Domain 1 staining. The cell adhesion and Actin/CD31 expression was evaluated by image analysis of the surface after staining.\nIn particular, as per FIG. 2 the bare or coated nitinol disks were placed at the bottom of culture wells. Primary Human Aortic Endothelial Cells (HAEC) were allowed to grow on the disks for a period of 48 h. The disks were thereafter rinsed with phosphate buffered saline, fixed in formalin, and processed for fluorescence microscopy. Disk-adherent cells were immersed in a solution comprising Hoechst 33342 (1 μg/ml, to stain the nuclei), phalloidin coupled to AlexaFluor®488 dye (0.5 μM, to stain F-actin fibers) and a monoclonal antibody directed against CD31 domain 1, coupled to allophycocyanin (to detect the presence and localization of intact CD31 at the cell surface) for 1 hour at 37° C., washed and mounted face down on glass bottom imaging chambers for imaging with an inverted fluorescence microscope.\nSurface type is indicated on the Y axis, data are expressed as average±SD (N=6/surface type). Each dot corresponds to a specific surface modification. The F-actin expression relates the cellular stress of the cell in presence of the exogenous material.\nIn FIG. 4 the surface type is indicated on the Y axis. Each dot corresponds to a specific surface modification. Data are expressed as “Integrated Density” average±SD (N=6/surface type). CD31 expression relates the capacity of endothelial cells to adopt a physiologic phenotype while growing on a given substrate. An important variability is observed in terms of CD31 expression by HAEC according to the surface modification of the nitinol disks.\nThe effect of different peptides, belonging to the different groups, were tested in batches following the same protocol as in FIG. 6. Different peptides from each group were tested in batches and the effect of individual peptides was repeatedly assessed in separate experiments. Data from all experiments were obtained by computer-assisted analysis of images of the disk side covered with endothelial cells, captured in the blue, green and red channel of an inverted fluorescence microscope. The functional score of the peptides belonging to the different groups was calculated by multiplying the number of cells (as detected by the number of blue, Dapi+ nuclei) for the integrated density of CD31 expression (red signal provided by the binding of a mouse anti-human CD31 monoclonal antibody, clone 9G11, conjugated allophycocyanin) and their product being divided for the integrated density of the F-actin polymerization (Phalloidin coupled to a green fluorochrome).\nThe same protocol as in Example 1 was followed, using peptides according to the invention (SP547, SP548 SP745, SP1374, SP1072, SP1070, SP1071, SP1379 and SP1383) as defined above and the prior art peptide P8RI of sequence KWPALFVR (SEQ ID NO: 52).\nThe “CD31/Actin” score, resulting from the integrated density of CD31 immunostaining signal divided by the signal of phalloidin, which binds to the polymerized F-actin of the cytoskeleton, has been used to identify the physiological/non-stressed character of the arterial endothelial cells growing onto the surface of experimental disks placed at the bottom of culture wells. […]"}, "[3]": {"test_system": "New Zealand White rabbits", "assay": "Coated flow-diverter stents (CFD) implanted in aneurysm-carrying artery and abdominal aorta of the rabbit aneurysm model, with aspirin and clopidogrel; SEM and histopathology", "type": "in vivo", "text": "Flow-diverter stents (CFD) are braided meshes made of nitinol, from Sinomed. They are coated by one of the following coatings: • 1. SP1072 peptide according to the invention, or • 2. Hydrophilic polymer eG NTMA (obtained from the electrografting of N-[Tris(hydroxymethyl)Methyl] Acrylamide).\nA total of 8 healthy New Zealand White rabbits (including 2 spare animals), male and female, weighing about 3 kg, were included in this study. A total of 3 observation time points of 7 days, 30 days and 60 days postoperatively were set. The experiment was divided into two steps: 1) aneurysm animal modeling; 2) implantation of a dense mesh stent in the aneurysm-carrying artery and abdominal aorta for each animal. The stent implantation in the aneurysm-carrying artery was to be used to examine the safety and effectiveness of the stent in treating aneurysms, and the stent implantation in the abdominal aorta, covering a pair of lumbar arteries, was to be used to examine the safety of the tested stent.\nThe test group was implanted with a dense mesh stent system in the aneurysm location (common carotid artery) and in the abdominal aorta of the animal model, and the control group was implanted with a dense mesh stent system in the aneurysm-carrying artery, where the abdominal aorta was implanted with the device to evaluate the effect of the stent on the penetrating and branch vessels.\nIn addition to heparin sodium injection 150 U/kg by IV during implantation, antiplatelet therapy (aspirin and clopidogrel) was given to the animals at 5 mg/kg each by feeding once a day for 3 days before surgery and at 5 mg/kg each by feeding postoperative to endpoint.\nThe collected tissues of the stented segments of the carrier arteries were preserved in 10% neutral formalin for more than 48 hours of immersion fixation, dehydrated in alcohol gradient and treated with xylene transparency for histopathological analysis.\nThe resin-embedded stented segment of the aneurysm-carrying artery was sectioned transversely through the neck of the aneurysm, with one slice cut at the aneurysm and two slices cut at the non-aneurysm, and stained with HE; the non-stented segment was paraffin-embedded, with one slice cut at the proximal and one at the distal end; HE staining was performed for histopathological evaluation.\nOne animal each at 7D (7 days), 30D (30 days) and 60D (60 days) was randomly selected, and the aneurysm-carrying artery and abdominal aorta implanted at the above time points were collected for SEM to observe the endothelialization of the flow-directed stent at the aneurysm neck site and the opening site of the branch vessels at the abdominal aorta site."}, "[4]": {"test_system": "New Zealand White rabbits", "assay": "Coated flow-diverter stents (CFD) in the rabbit aneurysm model, no aspirin nor clopidogrel after implantation", "type": "in vivo", "conditions": "7 days, n=3, no aspirin nor clopidogrel after the implantation; preliminary", "text": "The same materials and protocol as in Example 3 were used, except that: • Only 3 animals were used for each condition, and. • No aspirin nor clopidogrel was given to animals after the implantation."}, "[5]": {"conditions": "day 7, aneurysm-carrying artery, HE staining, FIG. 29"}, "[6]": {"conditions": "day 60, aneurysm-carrying artery, FIG. 30"}}, "note": "Bridge positions count the residues as written; N and C are the ends. Square brackets hold non-standard residues; d marks the D form. Primed or numbered codes have the meaning given here. Ends that are not written are not given here. * marks the point of attachment. Lys(N3) = [N-]=[N+]=NCCCC[C@H](N)C(=O)O; Ttds = NCCCOCCOCCOCCCNC(=O)CCC(=O)*; hCys = N[C@@H](CCS)C(=O)O; PEG4′ = not defined here"}
{"substance": "KWPALFVR [P8RI, prior art CD31-mimetic octa-peptide]", "values": [{"measurement": "adhesion of endothelial cells", "setting": "endothelial cells; in vitro", "value": "increases the adhesion of endothelial cells in vitro"}, {"measurement": "blood element reaction", "setting": "endothelial cells", "value": "reduces the blood element reaction"}, {"measurement": "integration of endovascular devices", "setting": "[1]", "value": "enhances the integration of endovascular devices in vivo"}, {"measurement": "action on CD31", "setting": "CD31", "value": "acts like a CD31 agonist"}]}
{"substance": "Ac-YKDDVLFYNISSMKST-GGSGGSGG-K(N3)-NH2 (Ac-YKDDVLFYNISSMKSTGGSGGSGG[Lys(N3)]-NH2; SMILES CC[C@H](C)[C@H](NC(=O)[C@H](CC(N)=O)NC(=O)[C@H](Cc1ccc(O)cc1)NC(=O)[C@H](Cc1ccccc1)NC(=O)[C@H](CC(C)C)NC(=O)[C@@H](NC(=O)[C@H](CC(=O)O)NC(=O)[C@H](CC(=O)O)NC(=O)[C@H](CCCCN)NC(=O)[C@H](Cc1ccc(O)cc1)NC(C)=O)C(C)C)C(=O)N[C@@H](CO)C(=O)N[C@@H](CO)C(=O)N[C@@H](CCSC)C(=O)N[C@@H](CCCCN)C(=O)N[C@@H](CO)C(=O)N[C@H](C(=O)NCC(=O)NCC(=O)N[C@@H](CO)C(=O)NCC(=O)NCC(=O)N[C@@H](CO)C(=O)NCC(=O)NCC(=O)N[C@@H](CCCCN=[N+]=[N-])C(N)=O)[C@@H](C)O) [SP548]", "values": [{"measurement": "CD31/Actin score", "setting": "[2]", "value": "equivalent to those of sections coated by other peptides according to the invention"}]}
{"substance": "[Ac-K(N3)-(Ttds)4-PRVTLDKKEAIQGGIVRVNSSVPEEK-Ttds-K^#(CH2CO)-CONH2]-[QHQMLFYhC^#DDVLFYNISSMK-CONH2] (chain 1 {Ac-Lys(N3)-Ttds-Ttds-Ttds-Ttds}-PRVTLDKKEAIQGGIVRVNSSVPEEK-{Ttds-K(CH2CO)-NH2}; chain 2 QHQMLFY[hCys]DDVLFYNISSMK-NH2; also: thioether at chain B 8 to a chain's C-terminus) [SP1383]", "values": [{"measurement": "CD31/Actin score", "setting": "[2]", "value": "significantly higher"}]}
{"substance": "Ac-K(N3)-(Ttds)4-PRhCTLDKKEAIQGGIVRVNhCSVPEEK-CONH2 ({Ac-Lys(N3)-Ttds-Ttds-Ttds-Ttds}-PR[hCys]TLDKKEAIQGGIVRVN[hCys]SVPEEK-NH2; disulfide 3-20) [SP1380]", "values": [{"measurement": "CD31 expression, Integrated Density", "setting": "[2]", "value": "evident positive effect in terms of CD31 expression"}, {"measurement": "ratio between CD31 and F-actin expression", "setting": "[2]", "value": "higher CD31/actin ratio"}]}
{"substance": "YKSTVIVNNKEKTTAE-PEG4-K(N3)-CONH2 (YKSTVIVNNKEKTTAE[PEG4′][Lys(N3)]-NH2) [SP1072]", "values": [{"measurement": "CD31/Actin score", "setting": "[2]", "value": "significantly higher"}, {"measurement": "CD31 expression, Integrated Density", "setting": "[2]", "value": "evident positive effect in terms of CD31 expression"}, {"measurement": "ratio between CD31 and F-actin expression", "setting": "[2]", "value": "higher CD31/actin ratio"}, {"measurement": "endothelialization of the device at sites other than the aneurysm entry (conclusion)", "setting": "[3]; Example 3 conclusion", "value": "fast and complete without apparent inflammation nor neointima"}, {"measurement": "endothelialization on the inner surface of the flow-diverter stents (conclusion)", "setting": "[3]; Example 3 conclusion", "value": "promotes early endothelialization on the inner surface of the flow-diverter stents"}, {"measurement": "neo arterial wall at the entry of the aneurysm sac and thrombus inside the sac (conclusion)", "setting": "[3]; Example 3 conclusion", "value": "promotes the growth of an organized, blood-impermeable neo arterial wall at the entry of the aneurysm sac"}, {"measurement": "entry of fresh blood into the aneurysmal sac / thrombus (histopathology)", "setting": "[3]; [5]", "value": "fresh blood is no longer allowed to enter and remain trapped there"}, {"measurement": "organization of the thrombus in the aneurysmal sac (histopathology)", "setting": "[3]; [5]", "value": "organized"}, {"measurement": "inflammation/thrombosis of the arterial wall in contact with the stent struts (histopathology)", "setting": "[3]; [6]", "value": "absence of inflammation/thrombosis of the arterial wall that is already in contact with the stent struts"}, {"measurement": "organization of the thrombus in the aneurysmal sac (histopathology)", "setting": "[3]; [6]", "value": "very well organized"}, {"measurement": "survival and thrombus after implantation", "setting": "[4]", "value": "still alive with no thrombus"}]}
